From patent publication US10392383B2, “3-(1H-benzo[d]imidazol-2-yl)-1H-pyrazolo[4,3-b]pyridines and therapeutic uses thereof” (Samumed, LLC, priority 2015, dated 2019)

What was measured:
IL-6 (THP-1 cells) = test: IL-6 inhibition in LPS-stimulated THP-1 monocytes (HTRF); type: cell-based; conditions: Homo sapiens, IL-6 HTRF; for EC50: 500 ng/mL LPS, Table 6; for inhibition at 10 µM: LPS, Table 6, read-out: percent inhibition at 10 μM (given in parentheses for EC50 >10 μM)
Procedure: Human Monocyte Cell Culture: Human monocyte cell line (THP-1 cells; Catalog # TIB-202, ATCC, Manassas, Va.) were cultured in Roswell Park Memorial Institute (RPMI) 1640 Medium (Catalog #21870-100, Buffalo, N.Y.) with 1% L-glutamine, 1% HEPES, 1% Sodium Pyruvate, 2% Sodium Bicarbonate supplemented with 100 units/mL penicillin, 50 μg/mL streptomycin, 2-mercaptoethanol (0.05 mM) [basal medium] and 10% fetal bovine serum (Catalog #16140089, Life Technologies, Carlsbad, Calif.) at 37° C. and 5% CO2.
Compound Screening: THP-1 cells were cultured in basal media with 1% FBS for 24 hours before the start of the assay. Each compound was dissolved in DMSO as a 10 mM stock and used to prepare compound source plates. Serial dilution (1:3, 10-point dose-response curves starting from 10 μM) and compound transfer was performed using the ECHO 550 (Labcyte, Sunnyvale, Calif.) into 384-well white low volume assay plates (Greiner Bio-One) with appropriate DMSO backfill for a final DMSO concentration of 0.1%. THP-1 cells were plated at 5000 cells/well in the 384-well plates and incubated at 37° C. for 2 h. 500 ng/mL of LPS was added after 2 hours and cells were incubated for another 22 hours at 37° C. Plates were spun in a centrifuge for 1 minute at […] and a mixture of anti-IL6 XL665, and anti-IL6 Cryptate diluted in reconstitution buffer (Cisbio Inc.) was added to each well. Following incubation for 3 hrs at room temperature, Homogeneous Time-Resolved Fluorescence (HTRF) was measured using the Envision (Perkin Elmer) at 665 nm and […]. The ratio of fluorescence at 665 nm to 620 nm was used as a readout for IL6 quantification. All samples were processed in duplicate. Readings were normalized to DMSO treated cells and normalized activities were utilized for EC50 calculations using the dose-response log (inhibitor) vs. response-variable slope (four parameters) nonlinear regression feature available in GraphPad Prism 5.0 (or Dotmatics). For EC50 of >10 μM, the percent inhibition at 10 μM is provided.

[1] = tested on: Wnt activity (Sp5-Luc reporter, Wnt-responsive promoter) in SW480 colon carcinoma cells; test: Wnt activity screening assay: Sp5-Luc reporter gene assay in SW480 cells; type: cell-based; conditions: Homo sapiens; for EC50: overnight incubation, 10-point curve starting from 10 μM
Excerpt: The screening assay for Wnt activity is described as follows. Reporter cell lines can be generated by stably transducing cancer cell lines (e.g., colon cancer) or primary cells (e.g., IEC-6 intestinal cells) with a lentiviral construct that includes a Wnt-responsive promoter driving expression of the firefly luciferase gene.
SW480 colon carcinoma cells were transduced with a lentiviral vector expressing luciferase with a human Sp5 promoter consisting of a sequence of eight TCF/LEF binding sites. SW480 cells stably expressing the Sp5-Luc reporter gene and a hygromycin resistance gene were selected by treatment with 150 μg/mL of hygromycin for 7 days. These stably transduced SW480 cells were expanded in cell culture and used for all further screening activities. Each compound was dissolved in DMSO as a 10 mM stock and used to prepare compound source plates. Serial dilution (1:3, 10-point dose-response curves starting from 10 μM) and compound transfer was performed using the ECHO 550 (Labcyte, Sunnyvale, Calif.) into 384-well white solid bottom assay plates (Greiner Bio-One) with appropriate DMSO backfill for a final DMSO concentration of 0.1%. For Sp5-Luc reporter gene assays, the cells were plated at 4,000 cells/well in 384-well plates with medium containing 1% fetal bovine serum and incubated overnight at 37° C. and 5% CO2. Following incubation, 20 μl of BrightGlo luminescence reagent (Promega) was added to each well of the 384-well assay plates. The plates were placed on an orbital shaker for 2 min and then luminescence was quantified using the Envision (Perkin Elmer) plate reader. Readings were normalized to DMSO only treated cells, and normalized activities were utilized for EC50 calculations using the dose-response log (inhibitor) vs. response-variable slope (four parameters) nonlinear regression feature available in GraphPad Prism 5.0 (or Dotmatics). For EC50 of >10 μM, the percent inhibition at 10 μM is provided.

Row | EC50 (IL-6 (THP-1 cells)) [nM] | EC50 [1] [nM] | SMILES | inhibition at 10 µM (IL-6 (THP-1 cells)) [%] | inhibition at 10 µM ([1]; 10 μM, read-out: percent inhibition at 10 μM (given for EC50 of >10 μM)) [%]
1 | 161 | 3800 | CCC(=O)Nc1cncc(-c2ccc3[nH]nc(-c4nc5c(N6CCCCC6)cccc5[nH]4)c3n2)c1 [Compound 169, N-(5-(3-(4-(Piperidin-1-yl)-1H-benzo[d]imidazol-2-yl)-1H-pyrazolo[4,3-b]pyridin-5-yl)pyridin-3-yl)propionamide] | – | –
2 | 5.5 | 980 | COc1cccc(-c2cccc3[nH]c(-c4n[nH]c5ccc(-c6cncc(O)c6)nc45)nc23)c1 [Compound 1030, 5-(3-(4-(3-Methoxyphenyl)-1H-benzo[d]imidazol-2-yl)-1H-pyrazolo[4,3-b]pyridin-5-yl)pyridin-3-ol] | – | –
3 | > 10000 | 3300 | O=C(Nc1cncc(-c2ccc3[nH]nc(-c4nc5c(-c6ccc(Cl)s6)cccc5[nH]4)c3n2)c1)C1CCC1 [Compound 1056, N-(5-(3-(4-(5-Chlorothiophen-2-yl)-1H-benzo[d]imidazol-2-yl)-1H-pyrazolo [4,3-b]pyridin-5-yl)pyridin-3-yl)cyclobutanecarboxamide] | 47.8 | –
4 | 2070 | 3110 | CN(C)CCNc1cc(F)cc(-c2cccc3[nH]c(-c4n[nH]c5ccc(-c6cncc(OCCN7CCCC7)c6)nc45)nc23)c1 [Compound 786, N^1-(3-Fluoro-5-(2-(5-(5-(2-(pyrrolidin-1-yl)ethoxy)pyridin-3-yl)-1H-pyrazolo[4,3-b]pyridin-3-yl)-1H-benzo[d]imidazol-4-yl)phenyl)-N^2,N^2-dimethylethane-1,2-diamine] | – | –
5 | > 10000 | 1370 | COc1cncc(-c2ccc3[nH]nc(-c4nc5c(-c6ccoc6)cccc5[nH]4)c3n2)c1 [Compound 692, 3-(4-(Furan-3-yl)-1H-benzo[d]imidazol-2-yl)-5-(5-methoxypyridin-3-yl)-1H-pyrazolo[4,3-b]pyridine] | 53.2 | –
6 | > 10000 | 1900 | CC(C)CC(=O)Nc1cncc(-c2ccc3[nH]nc(-c4nc5c(-c6ccc(Cl)s6)cccc5[nH]4)c3n2)c1 [Compound 1037, N-(5-(3-(4-(5-Chlorothiophen-2-yl)-1H-benzo[d]imidazol-2-yl)-1H-pyrazolo [4,3-b]pyridin-5-yl)pyridin-3-yl)-3-methylbutanamide] | 19.5 | –
7 | 2970 | 2130 | CN(C)c1cncc(-c2ccc3[nH]nc(-c4nc5c(N6CCCCC6)cccc5[nH]4)c3n2)c1 [Compound 175, N,N-dimethyl-5-(3-(4-(piperidin-1-yl)-1H-benzo[d]imidazol-2-yl)-1H-pyrazolo[4,3-b]pyridin-5-yl)pyridin-3-amine] | – | –
8 | > 10000 | > 10000 | c1cc(-c2ccncc2)c2nc(-c3n[nH]c4ccc(-c5cnccn5)nc34)[nH]c2c1 [Compound 584, 5-(Pyrazin-2-yl)-3-(4-(pyridin-4-yl)-1H-benzo[d]imidazol-2-yl)-1H-pyrazolo[4,3-b]pyridine] | 14.7 | 7.4
9 | 9370 | 257 | Cc1ncc(-c2ccc3[nH]nc(-c4nc5c(-c6ccoc6)cccc5[nH]4)c3n2)n1C [Compound 685, 5-(1,2-Dimethyl-1H-imidazol-5-yl)-3-(4-(furan-3-yl)-1H-benzo[d]imidazol-2-yl)-1H-pyrazolo[4,3-b]pyridine] | – | –
10 | 9720 | 2200 | Cn1cc(-c2ccc3[nH]nc(-c4nc5c(-c6ccc(F)cc6)cccc5[nH]4)c3n2)c(CO)n1 [Compound 1129, (4-(3-(4-(4-Fluorophenyl)-1H-benzo[d]imidazol-2-yl)-1H-pyrazolo[4,3-b]pyridin-5-yl)-1-methyl-1H-pyrazol-3-yl)methanol] | – | –

Row | SMILES | EC50 (IL-6 (THP-1 cells)) [nM] | EC50 [1] [nM] | inhibition at 10 µM (IL-6 (THP-1 cells)) [%] | inhibition at 10 µM ([1]; 10 μM, read-out: percent inhibition at 10 μM (given for EC50 of >10 μM)) [%]
11 | Cc1ccc(-c2cccc3[nH]c(-c4n[nH]c5ccc(C6=CCNCC6)nc45)nc23)s1 [Compound 730, 3-(4-(5-Methylthiophen-2-yl)-1H-benzo[d]imidazol-2-yl)-5-(1,2,3,6-tetrahydropyridin-4-yl)-1H-pyrazolo[4,3-b]pyridine] | 9160 | 1010 | – | –
